Measured values reported in the supplement of paper PMC10307832.

Columns and labels:
Assay in all cases: relative viability (nuclei count vs DMSO), 5 days (fraction); higher = more cells survive
NCI-H661 = tested on: NCI-H661
Procedure, shortened: (§1)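 Relative viability is defined as nuclei in treated wells over nuclei in vehicle wells. Duplicate plates were run and medians reported. Lung cancer cell lines in 1536-well plates were dosed by pin tool one day after seeding, with one drug or with a fixed anchor-drug dose plus five library-drug doses (not always all listed) in √10 steps, and nuclei were counted after 5 days.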

NCI-H650 = tested on: NCI-H650
Procedure, shortened: as §1

BEN = tested on: BEN
Procedure, shortened: as §1

NCI-H1650 = tested on: NCI-H1650
Procedure, shortened: as §1

A-427 = tested on: A-427
Procedure, shortened: as §1

LC-2-ad = tested on: LC-2-ad
Procedure, shortened: as §1

201T = tested on: 201T
Procedure, shortened: as §1

NCI-H1915 = tested on: NCI-H1915
Procedure, shortened: as §1

ABC-1 = tested on: ABC-1
Procedure, shortened: as §1

H3255 = tested on: H3255
Procedure, shortened: as §1

NCI-H460 = tested on: NCI-H460
Procedure, shortened: as §1

CAL-12T = tested on: CAL-12T
Procedure, shortened: as §1

NCI-H520 = tested on: NCI-H520
Procedure, shortened: as §1

PC-3 [JPC-3] = tested on: PC-3 [JPC-3]
Procedure, shortened: as §1

NCI-H1651 = tested on: NCI-H1651
Procedure, shortened: as §1

LCLC-97TM1 = tested on: LCLC-97TM1
Procedure, shortened: as §1

NCI-H441 = tested on: NCI-H441
Procedure, shortened: as §1

NCI-H727 = tested on: NCI-H727
Procedure, shortened: as §1

NCI-H1944 = tested on: NCI-H1944
Procedure, shortened: as §1

NCI-H2023 = tested on: NCI-H2023
Procedure, shortened: as §1

NCI-H2087 = tested on: NCI-H2087
Procedure, shortened: as §1

## Cc1sc2c(c1C)C(c1ccc(Cl)cc1)=N[C@@H](CC(=O)OC(C)(C)C)c1nnc(C)n1-2 [JQ1] + CC(=O)c1c(C)c2cnc(Nc3ccc(N4CCNCC4)cn3)nc2n(C2CCCC2)c1=O [Palbociclib] (partner 0.5 µM)
NCI-H661; first compound 0.04 µM
  relative viability: 0.406
NCI-H661; first compound 0.1265 µM
  relative viability: 0.369
NCI-H661; first compound 0.4 µM
  relative viability: 0.424
NCI-H661; first compound 1.265 µM
  relative viability: 0.406
NCI-H661; first compound 4 µM
  relative viability: 0.397
NCI-H650; first compound 0.04 µM
  relative viability: 0.328
NCI-H650; first compound 0.1265 µM
  relative viability: 0.259
NCI-H650; first compound 0.4 µM
  relative viability: 0.228
NCI-H650; first compound 1.265 µM
  relative viability: 0.176
NCI-H650; first compound 4 µM
  relative viability: 0.164
BEN; first compound 0.04 µM
  relative viability: 0.435
BEN; first compound 0.1265 µM
  relative viability: 0.443
BEN; first compound 0.4 µM
  relative viability: 0.476
BEN; first compound 1.265 µM
  relative viability: 0.376
BEN; first compound 4 µM
  relative viability: 0.325
NCI-H1650; first compound 0.04 µM
  relative viability: 0.322
NCI-H1650; first compound 0.1265 µM
  relative viability: 0.264
NCI-H1650; first compound 0.4 µM
  relative viability: 0.256
NCI-H1650; first compound 1.265 µM
  relative viability: 0.111
NCI-H1650; first compound 4 µM
  relative viability: 0.134
A-427; first compound 0.04 µM
  relative viability: 0.524
A-427; first compound 0.1265 µM
  relative viability: 0.493
A-427; first compound 0.4 µM
  relative viability: 0.457
A-427; first compound 1.265 µM
  relative viability: 0.445
A-427; first compound 4 µM
  relative viability: 0.375
LC-2-ad; first compound 0.04 µM
  relative viability: 0.514
LC-2-ad; first compound 0.1265 µM
  relative viability: 0.433
LC-2-ad; first compound 0.4 µM
  relative viability: 0.342
LC-2-ad; first compound 1.265 µM
  relative viability: 0.279
LC-2-ad; first compound 4 µM
  relative viability: 0.281
201T; first compound 0.04 µM
  relative viability: 0.334
201T; first compound 0.4 µM
  relative viability: 0.298
201T; first compound 1.265 µM
  relative viability: 0.313
201T; first compound 4 µM
  relative viability: 0.268
NCI-H1915; first compound 0.04 µM
  relative viability: 0.542
NCI-H1915; first compound 0.4 µM
  relative viability: 0.37
NCI-H1915; first compound 1.265 µM
  relative viability: 0.295
NCI-H1915; first compound 4 µM
  relative viability: 0.179
ABC-1; first compound 0.04 µM
  relative viability: 0.701
ABC-1; first compound 0.1265 µM
  relative viability: 0.479
ABC-1; first compound 0.4 µM
  relative viability: 0.44
ABC-1; first compound 1.265 µM
  relative viability: 0.451
ABC-1; first compound 4 µM
  relative viability: 0.334
H3255; first compound 0.04 µM
  relative viability: 0.303
H3255; first compound 0.1265 µM
  relative viability: 0.321
H3255; first compound 0.4 µM
  relative viability: 0.283
H3255; first compound 1.265 µM
  relative viability: 0.247
H3255; first compound 4 µM
  relative viability: 0.228
NCI-H460; first compound 0.04 µM
  relative viability: 0.172
NCI-H460; first compound 0.1265 µM
  relative viability: 0.0585
NCI-H460; first compound 0.4 µM
  relative viability: 0.0456
NCI-H460; first compound 1.265 µM
  relative viability: 0.0198
NCI-H460; first compound 4 µM
  relative viability: 0.0263
CAL-12T; first compound 0.04 µM
  relative viability: 0.413
CAL-12T; first compound 0.1265 µM
  relative viability: 0.377
CAL-12T; first compound 0.4 µM
  relative viability: 0.226
CAL-12T; first compound 1.265 µM
  relative viability: 0.114
CAL-12T; first compound 4 µM
  relative viability: 0.233
NCI-H520; first compound 0.04 µM
  relative viability: 0.197
NCI-H520; first compound 0.1265 µM
  relative viability: 0.196
NCI-H520; first compound 0.4 µM
  relative viability: 0.184
NCI-H520; first compound 1.265 µM
  relative viability: 0.154
NCI-H520; first compound 4 µM
  relative viability: 0.143
PC-3 [JPC-3]; first compound 0.04 µM
  relative viability: 0.532
PC-3 [JPC-3]; first compound 0.1265 µM
  relative viability: 0.554
PC-3 [JPC-3]; first compound 0.4 µM
  relative viability: 0.513
PC-3 [JPC-3]; first compound 1.265 µM
  relative viability: 0.575
PC-3 [JPC-3]; first compound 4 µM
  relative viability: 0.438
NCI-H1651; first compound 0.04 µM
  relative viability: 0.494
NCI-H1651; first compound 0.1265 µM
  relative viability: 0.416
NCI-H1651; first compound 0.4 µM
  relative viability: 0.403
NCI-H1651; first compound 1.265 µM
  relative viability: 0.299
NCI-H1651; first compound 4 µM
  relative viability: 0.282
LCLC-97TM1; first compound 0.04 µM
  relative viability: 0.255
LCLC-97TM1; first compound 0.1265 µM
  relative viability: 0.159
LCLC-97TM1; first compound 0.4 µM
  relative viability: 0.15
LCLC-97TM1; first compound 1.265 µM
  relative viability: 0.0928
LCLC-97TM1; first compound 4 µM
  relative viability: 0.0931
NCI-H441; first compound 0.04 µM
  relative viability: 0.19
NCI-H441; first compound 0.1265 µM
  relative viability: 0.206
NCI-H441; first compound 0.4 µM
  relative viability: 0.176
NCI-H441; first compound 1.265 µM
  relative viability: 0.137
NCI-H441; first compound 4 µM
  relative viability: 0.132
NCI-H727; first compound 0.04 µM
  relative viability: 0.63
NCI-H727; first compound 0.1265 µM
  relative viability: 0.576
NCI-H727; first compound 0.4 µM
  relative viability: 0.61
NCI-H727; first compound 1.265 µM
  relative viability: 0.538
NCI-H727; first compound 4 µM
  relative viability: 0.581
NCI-H1944; first compound 0.04 µM
  relative viability: 0.327
NCI-H1944; first compound 0.1265 µM
  relative viability: 0.308
NCI-H1944; first compound 0.4 µM
  relative viability: 0.232
NCI-H1944; first compound 1.265 µM
  relative viability: 0.217
NCI-H1944; first compound 4 µM
  relative viability: 0.179
NCI-H2023; first compound 0.04 µM
  relative viability: 0.338
NCI-H2023; first compound 0.1265 µM
  relative viability: 0.281
NCI-H2023; first compound 0.4 µM
  relative viability: 0.225
NCI-H2023; first compound 1.265 µM
  relative viability: 0.135
NCI-H2023; first compound 4 µM
  relative viability: 0.105
NCI-H2087; first compound 0.04 µM
  relative viability: 0.234
NCI-H2087; first compound 0.1265 µM
  relative viability: 0.214
NCI-H2087; first compound 0.4 µM
  relative viability: 0.153
NCI-H2087; first compound 1.265 µM
  relative viability: 0.157
NCI-H2087; first compound 4 µM
  relative viability: 0.163
